According to patent publication US20230090708A1, “METHODS AND COMPOSITIONS FOR THE TREATMENT OF HEMANGIOMA” (MASSEY VENTURES LIMITED, priority 2020, published 2023):
In brackets after ≈: the same amount, converted by molar mass. Where two headings read alike, the source gives them in different places.

How the values were obtained:
proliferating IH [1] = settings: topical 1% ointments; cited from earlier work
IH = settings: oral; 30 patients with IH; cited from earlier work
[2] = tested on: proliferating hemangioma cells; experiment: Experiment 7: different ACEi and beta blockers on one primary cell line, MTT; format: cell-based, human; settings: for Results Summary: 72 hours, one cell line; for inhibition at 1 µM / inhibition at 10 µM: Homo sapiens, 72 h, read-out: Inhibition vs. Cells + Adjuvant at 72 Hours; for inhibition of proliferating hemangioma cells: 1 μM and 10 μM
Method: (§1) An in vitro cell culture model of infantile hemangioma was developed to assess the impact of renin-angiotensin system inhibitors on cellular proliferation. A primary cell line of proliferating infantile hemangioma cells, including haemangioma stem cells, was derived from a tissue biopsy obtained from patients during the proliferating phase of the disease. The primary cell lines are cultured in 25 cm^2 flasks using standard culture media and conditions. The cultured cells are used to seed 96-well plates with a seed cell concentration of 2500 or 5000 cells per well, with additional culture media (200 μL). All studies are performed in triplicate.
The plates are incubated overnight to allow cell adherence to the wells. The wells are photographed to confirm cell adherence and confluency. The appropriate drug(s) to be examined are subsequently added to the wells. […] The media is aspirated from each well and stored frozen for possible future analyses. Media is added to the wells and an MTT determination is undertaken according to standard protocols.
(§2) From the triplicate incubations of each drug concentration at each time, as well as for all controls, the mean±standard deviation is calculated. The net survival (optical density value) is calculated by subtracting the appropriate blank mean value from each cell culture. From the MTT data, the percentage of survival of cells in the presence of each concentration of drug after each time of culturing is determined.
Briefly, cells were seeded in 96-well plates at concentrations of 2500 cells/well in triplicate for each drug and drug combination. […] All plates were performed in triplicate. Beta blockers used in the study were (±)-propranolol, R-propranolol, S-propranolol, timolol, and betaxalol.

proliferating IH [3] = settings: cited from earlier work
[4] = cited from earlier work; for Half life: short or long acting: in words; for Half life: in vivo
[5] = cited from earlier work
rabbit lung ACE = molecular target: T1, rabbit lung ACE (Oryctolagus cuniculus, UniProt P12822); settings: vs rabbit lung ACE, cited from earlier work
T1 construct: rabbit lung ACE; from tissue; host or cells: rabbit lung
T1 sequence (P12822 34-1310): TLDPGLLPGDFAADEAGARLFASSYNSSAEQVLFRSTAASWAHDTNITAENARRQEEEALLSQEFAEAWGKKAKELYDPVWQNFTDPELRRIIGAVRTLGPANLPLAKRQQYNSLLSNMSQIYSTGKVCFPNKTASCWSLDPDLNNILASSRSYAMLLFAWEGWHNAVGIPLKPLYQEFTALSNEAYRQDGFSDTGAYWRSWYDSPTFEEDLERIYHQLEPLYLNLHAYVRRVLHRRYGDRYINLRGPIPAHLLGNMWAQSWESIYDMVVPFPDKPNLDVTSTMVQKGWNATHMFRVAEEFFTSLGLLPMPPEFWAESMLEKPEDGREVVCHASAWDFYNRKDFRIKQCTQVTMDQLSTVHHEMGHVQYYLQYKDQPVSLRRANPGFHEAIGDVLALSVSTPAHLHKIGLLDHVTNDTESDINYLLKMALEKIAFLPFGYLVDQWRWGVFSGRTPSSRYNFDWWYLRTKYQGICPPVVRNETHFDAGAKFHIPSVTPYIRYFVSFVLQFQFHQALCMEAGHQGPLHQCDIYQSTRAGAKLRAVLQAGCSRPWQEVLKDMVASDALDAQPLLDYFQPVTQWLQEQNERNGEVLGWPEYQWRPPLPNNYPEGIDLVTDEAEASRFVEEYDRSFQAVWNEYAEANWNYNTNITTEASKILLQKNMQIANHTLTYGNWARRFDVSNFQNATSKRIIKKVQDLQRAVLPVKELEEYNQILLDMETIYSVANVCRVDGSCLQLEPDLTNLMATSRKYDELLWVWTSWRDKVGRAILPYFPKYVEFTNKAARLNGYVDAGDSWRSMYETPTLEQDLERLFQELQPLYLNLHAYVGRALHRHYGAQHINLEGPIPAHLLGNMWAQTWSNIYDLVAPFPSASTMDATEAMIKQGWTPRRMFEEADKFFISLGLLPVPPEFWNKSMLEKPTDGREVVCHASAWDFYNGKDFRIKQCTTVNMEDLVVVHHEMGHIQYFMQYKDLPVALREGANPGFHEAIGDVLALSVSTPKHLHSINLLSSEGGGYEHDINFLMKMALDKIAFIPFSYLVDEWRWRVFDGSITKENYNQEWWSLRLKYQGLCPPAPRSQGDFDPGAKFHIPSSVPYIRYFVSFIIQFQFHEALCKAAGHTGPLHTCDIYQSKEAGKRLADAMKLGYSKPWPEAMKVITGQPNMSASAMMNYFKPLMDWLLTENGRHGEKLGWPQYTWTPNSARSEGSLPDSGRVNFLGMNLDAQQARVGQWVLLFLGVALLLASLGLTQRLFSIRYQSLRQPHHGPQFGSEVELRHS

[6] = cited from earlier work; remark: listed apart in the source
brush border ACE = molecular target: T2, brush border ACE (Homo sapiens, UniProt P12821); settings: cited from earlier work
T2 construct: brush border ACE; from tissue
T2 sequence (P12821 30-1306): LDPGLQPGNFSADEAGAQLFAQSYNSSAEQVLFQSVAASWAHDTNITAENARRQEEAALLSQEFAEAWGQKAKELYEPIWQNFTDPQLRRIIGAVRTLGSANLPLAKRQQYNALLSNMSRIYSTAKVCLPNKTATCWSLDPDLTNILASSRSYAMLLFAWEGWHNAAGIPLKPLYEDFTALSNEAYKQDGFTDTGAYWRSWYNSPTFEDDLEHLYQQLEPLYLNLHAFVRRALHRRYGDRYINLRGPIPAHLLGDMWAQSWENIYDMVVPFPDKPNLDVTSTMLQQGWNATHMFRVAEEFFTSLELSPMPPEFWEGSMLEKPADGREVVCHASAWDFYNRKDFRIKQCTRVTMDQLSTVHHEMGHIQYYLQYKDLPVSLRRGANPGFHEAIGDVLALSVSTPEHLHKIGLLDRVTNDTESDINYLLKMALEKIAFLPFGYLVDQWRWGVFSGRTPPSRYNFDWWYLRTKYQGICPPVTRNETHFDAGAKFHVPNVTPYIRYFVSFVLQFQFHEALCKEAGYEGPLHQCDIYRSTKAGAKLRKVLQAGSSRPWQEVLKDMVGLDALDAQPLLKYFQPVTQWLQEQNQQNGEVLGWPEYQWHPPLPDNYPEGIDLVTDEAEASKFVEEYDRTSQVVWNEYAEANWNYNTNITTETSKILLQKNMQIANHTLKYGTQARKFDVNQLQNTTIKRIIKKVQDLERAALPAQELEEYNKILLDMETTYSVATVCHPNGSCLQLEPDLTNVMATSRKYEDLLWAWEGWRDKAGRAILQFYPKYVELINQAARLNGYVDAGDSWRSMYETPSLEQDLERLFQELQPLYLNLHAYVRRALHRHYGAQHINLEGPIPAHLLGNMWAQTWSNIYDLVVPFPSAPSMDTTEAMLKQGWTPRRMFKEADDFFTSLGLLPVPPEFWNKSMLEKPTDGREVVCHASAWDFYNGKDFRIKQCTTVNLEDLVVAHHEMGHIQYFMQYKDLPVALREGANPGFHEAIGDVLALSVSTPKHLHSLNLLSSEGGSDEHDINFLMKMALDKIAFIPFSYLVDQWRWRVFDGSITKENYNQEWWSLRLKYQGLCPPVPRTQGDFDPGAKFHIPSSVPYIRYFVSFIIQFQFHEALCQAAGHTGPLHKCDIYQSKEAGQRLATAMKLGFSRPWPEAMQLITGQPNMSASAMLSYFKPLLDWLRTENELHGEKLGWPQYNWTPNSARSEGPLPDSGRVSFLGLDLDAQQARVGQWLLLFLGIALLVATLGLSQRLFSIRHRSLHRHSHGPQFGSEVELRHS

[7] = tested on: proliferating hemangioma cells; experiment: Example 5: R- and S-beta blockers alone and with cilazapril, MTT; format: cell-based, human
Method: An in vitro cell culture model of infantile hemangioma was developed to assess the impact of renin-angiotensin system inhibitors on cellular proliferation. A primary cell line of proliferating infantile hemangioma cells, including haemangioma stem cells, was derived from a tissue biopsy obtained from patients during the proliferating phase of the disease. The primary cell lines are cultured in 25 cm^2 flasks using standard culture media and conditions. The cultured cells are used to seed 96-well plates with a seed cell concentration of 2500 or 5000 cells per well, with additional culture media (200 μL). All studies are performed in triplicate. The plates are incubated overnight to allow cell adherence to the wells. The wells are photographed to confirm cell adherence and confluency. The appropriate drug(s) to be examined are subsequently added to the wells. After 24 hours, one set of plates (experimental and blank) is stopped. The media is aspirated from each well and stored frozen for possible future analyses. Media is added to the wells and an MTT determination is undertaken according to standard protocols. This is repeated at 48 and 72 hours. From the triplicate incubations of each drug concentration at each time, as well as for all controls, the mean±standard deviation is calculated. The net survival (optical density value) is calculated by subtracting the appropriate blank mean value from each cell culture. From the MTT data, the percentage of survival of cells in the presence of each concentration of drug after each time of culturing is determined. The experimental protocol was performed as per Example 1. Briefly, cells were seeded in 96-well plates at concentrations of 2500 cells/well in triplicate for each drug and drug combination. Drug(s) were added to each well 24 hours after seeding and re-dosed every 24 hours. Cell viability was assessed by MTT assay after 24, 48, and 72 hours. All plates were performed in triplicate. […] Timolol and propranolol were used as model beta blockers and cilazapril as a model ACE inhibitor.

[8] = tested on: proliferating hemangioma cell lines (n=9); experiment: Example 6: single agents and combinations on nine primary cell lines, MTT, CompuSyn combination index; format: cell-based, human; settings: 1 to 10 μM; 72 hours; n=9
Method: as §1
The plates are incubated overnight to allow cell adherence to the wells. The wells are photographed to confirm cell adherence and confluency. The appropriate drug(s) to be examined are subsequently added to the wells. After 24 hours, one set of plates (experimental and blank) is stopped. The media is aspirated from each well and stored frozen for possible future analyses. Media is added to the wells and an MTT determination is undertaken according to standard protocols. This is repeated at 48 and 72 hours.
as §2
A study was undertaken using combinations of ACE inhibitors, beta blockers and angiotensin II type 2 receptor blockers to inhibit proliferating hemangioma cells. […] Patient histories pertaining to each cell line is described in Table 5.
The experimental protocol was performed as per Example 1. Briefly, cells were seeded in 96-well plates at concentrations of 2500 cells/well in triplicate for each drug and drug combination. Drug(s) were added to each well 24 hours after seeding and re-dosed every 24 hours. Cell viability was assessed by MTT assay after 24, 48, and 72 hours. All plates were performed in triplicate. Drugs were assessed alone and in combination, as described in Table 6. Propranolol was used as a model beta blocker, cilazapril as a model ACE inhibitor, and SMM02 (L-159686) as a model AT2Ri. Synergy was measured using the CompuSyn open-source software protocol for quantifying synergism and antagonism that uses the median-effect equation and mass-action laws to generate a combination index (www.compusyn.com). Synergism, additive effects and antagonism are defined as a CI<1, CI=1, and CI>1, respectively.

[9] = tested on: flat or minimally raised IH lesions; settings: cited from earlier work
superficial IH = settings: cited from earlier work
[10] = cited from earlier work; remark: listed apart in the source
[11] = Franz-diffusion cell permeation through skin-model membranes; settings: 120 hours
Source text: Firstly, a custom-built Franz-diffusion cell (FIG. 34 A) was constructed in-house, consisting of a donor and receiver chamber, and fitted with a water-jacket to enable the temperature to be controlled to mimic physiological conditions. […] This model system was used as a screening tool to increase the success of subsequent permeation studies performed on excised animal skin.
The system was validated by investigating the permeation of a water-soluble fluorescent dye, carboxyfluorescein, which has poor skin penetration properties. […] As a comparison, carboxyfluorescein was encapsulated into deformable liposomes with a phospholipid membrane composition of soy phosphatidylcholine (Phospholipon® 90G) and polysorbate 80 in an 80:20 mol % ratio. […]
The carboxyfluorescein emulgel (2 mL) was placed in the receiver chamber of the Franz-diffusion cell fitted with a Strat-M® membrane, and permeation of fluorescein across the membrane was monitored over time and quantified by fluoresce spectroscopy. […]
The permeation of propranolol through skin-model membranes in vitro was assessed. A 2-mL volume of the appropriate vehicle (cream vs. emulsion gel) was placed in the donor chamber of the Franz-diffusion cell, and the concentration of propranolol in the receiver chamber was determined by UV-Vis spectroscopy at frequent time intervals over 60 hours.

In the case of `CC(C)NCC(O)COc1cccc2ccccc12` (racemic) [(±) Propranolol, Propranolol], the good response (proliferating IH [1]) is listed as 57-59%, the “good to modest response rates” value (proliferating IH [1]) is listed as 75-90% and the modest response (proliferating IH [1]) is listed as 26-33%. For the same compound, the no response (proliferating IH [1]) was 10-15%, the “clinical improvement versus captopril” value (IH) was “significantly better and faster” and the “Results Summary” value [2] was “Responder”. For the same compound, the inhibition at 1 µM ([2]; 1 μM) was less than 0%, the inhibition at 10 µM ([2]; 10 μM) was 47.5% and the “patients treated showing an improvement” value (proliferating IH [3]; oral low dose, within 5 weeks) was “approximately 88%”. The patients successfully treated (proliferating IH [3]; oral, overall) was “approximately 60%”.

In the case of `CCOC(=O)[C@H](CCc1ccccc1)N[C@H]1CCc2ccccc2N(CC(=O)O)C1=O` [Benazepril], the “Half life: short or long acting” value [4] is listed as “Long acting”, the pKa [5] is listed as 3.5 and the pKa ([5]; second value) is listed as 5.4. For the same compound, the IC50 (rabbit lung ACE) was 425 nM and the Solubility ([6]; pH 7) was 1.76 mg/L (pH 7).

For `CCOC(=O)[C@H](CCc1ccccc1)N[C@@H](C)C(=O)N1[C@H](C(=O)O)C[C@@H]2CCC[C@@H]21` [Ramipril], the “Complete ACE inhibition lasting” value (brush border ACE; after single 10 μM dose) is listed as “inhibition lasting 15 days”, the IC50 (brush border ACE; vs brush border ACE) is listed as 5 nM and the Half life [4] is listed as 2 to 4 h (Ramipril). The “Half life: short or long acting” value [4] was “Long acting”, the pKa [5] was 3.75 and the pKa ([5]; second value) was 5.2. The “inhibition of proliferating hemangioma cells” value [2] was “good and similar level of inhibition”, the “Results Summary” value [2] was “Responder” and the inhibition at 1 µM ([2]; 1 μM) was less than 0%. The inhibition at 10 µM ([2]; 10 μM) was 68.1% and the Solubility [6] was 3.5 mg/L (≈ 8.4 µM).

In the case of `CC(C)NCC(O)COc1cccc2ccccc12` (stereo not drawn) [S(−) Propranolol, S-propranolol], the “individual isomers compared with the racemic mixture” value ([7]; alone) is reported as “as effective alone as the racemic mixture”, the “attenuating hemangioma cell proliferation, propranolol vs timolol enantiomers” value ([7]; particularly at 1-5 μM) is reported as “superior to R- and S-timolol” and the “Estimated Optimal Dosage Range” value [2] is reported as 1 to 10 µM. The “Inhibition vs. Cells + Adjuvant at 72 Hours” value ([2]; 1 μM) was 1 μM - No - 2.07%, the “Inhibition vs. Cells + Adjuvant at 72 Hours” value ([2]; 10 μM) was 10 μM - Response - 45.68% and the “Results Summary” value [2] was “Responder”. For the same compound, the “dose-response across all cell lines” value [8] was “typical dose-response”.

For `O=C(O)[C@H](CCc1ccccc1)N[C@H]1CCCN2CCC[C@@H](C(=O)O)N2C1=O` [cilazaprilat], the Half life [4] is listed as 9 h (cilazaprilat) and the IC50 (rabbit lung ACE) is listed as 1.93 nM.

For `CCC(=O)O[C@]1(C(=O)CCl)[C@@H](C)C[C@H]2[C@@H]3CCC4=CC(=O)C=C[C@]4(C)[C@@]3(F)[C@@H](O)C[C@@]21C` [clobetasol propionate], the good response ([9]; topical 0.05%, 4 to 21 weeks) is given as 35%, the no response ([9]; topical 0.05%, 4 to 21 weeks) is given as 27% and the partial response ([9]; topical 0.05%, 4 to 21 weeks) is given as 38%. The adverse effects ([9]; topical ultrapotent corticosteroid) was “localised atrophy, hypopigmentation, hypertrichosis and infection”.

For `CC(C)Cn1cnc2c(N)nc3ccccc3c21` [imiquimod, Imiquimod], the “time within which all cases are improved” value (superficial IH; 5% cream) is given as no more than 4 months and the side effects (superficial IH; topical) is given as “severe local inflammatory reactions leading to disfiguring scars”.

In the case of Lisinopril, the Half life [4] is listed as 12.6 h, the “Half life: short or long acting” value [4] is listed as “Long acting” and the “Log P” value ([10]; Table 1) is listed as −1.01. The “log P” value [10] was −1.01, the pKa [5] was 3.2 and the pKa ([5]; second value) was 10.2. The “Estimated Optimal Dosage Range” value [2] was 1 to 10 µM, the “Inhibition vs. Cells + Adjuvant at 72 Hours” value ([2]; 1 μM) was 1 μM - <0% and the “inhibition of proliferating hemangioma cells” value [2] was “no effect”. For the same compound, the “Inhibition vs. Cells + Adjuvant at 72 Hours” value ([2]; 10 μM) was 10 μM -1.67%, the “Results Summary” value [2] was “Non-” and the IC50 (rabbit lung ACE; unit inferred) was 3.3 nM. The Solubility [6] was 97000 mg/L.

For carboxyfluorescein, the “permeation of carboxyfluorescein through the skin-model membrane” value [11] is given as “No permeation” and the “log P” value [10] is given as 2.9.
